Experimental findings from US20240277697A1, “METHODS OF TREATING OR PREVENTING CONDITIONS ASSOCIATED WITH OPIATE WITHDRAWAL OR OPIATE RELAPSE” (Proniras Corporation, priority 2021, published 2024) are described below.

Assay type in all cases: in vivo
Data set [1] concerns oxycodone withdrawal in mice. The data set is described as follows: Oxycodone-precipitated (naloxone) withdrawal in mice. As to conditions: mice chronically administered oxycodone. The procedure: (§1) Statistical analyses. All statistical analyses were performed using Prism 7 (GraphPad Software, La Jolla, CA, USA). Data were analyzed with analysis of variance (ANOVA) followed by the Tukey test for multiple comparisons when appropriate. To determine whether treatment with tezampanel affected oxycodone withdrawal, results with its dosage groups (i.e., chronic oxycodone+tezampanel) were compared to the chronic oxycodone+vehicle treatment group. To determine if tezampanel exerted effects by itself in non-dependent mice, results with the chronic saline+10 mg/kg tezampanel group were compared to the chronic saline+vehicle group. Student's T tests were used for analyzing locomotor activity results. Statistical significance was inferred for all tests when p<0.05.
FIGS. 3A-3D show total withdrawal signs, paw tremors, jumps, and percent body weight loss, respectively. ANOVA results indicated statistically significant total number of signs [F(5,42)=33.78; p<0.0001] (FIG. 3A), paw tremors [F(5,42)=10.85; p<0.0001] (FIG. 3B), jumps [F (5, 42)=22.77; p<0.0001] (FIG. 3C) and loss of body weight [F (5, 42)=4.694; p=0.0017] (FIG. 3D).

A further data set relates to C57BL/6J mice. In words: Mouse locomotor activity (photocell activity cages). The procedure: Male experimentally naive C57BL/6J mice were placed into individual Omnitech photocell activity cages (28×16.5 cm) 30 min after intraperitoneal (i.p.) administration of either vehicle (n=6) or tezampanel at 10 mg/kg (n=7). Interruptions of the photocell beams (two banks of eight cells each) were then recorded for the next 30 min. Data were expressed as number of photocell interruptions.
as §1

For the next data set, the system named is Long-Evans hooded rats. The data set is described as follows: Oxycodone prime-induced reinstatement of extinguished oxycodone-reinforced lever pressing in rats. Particulars: for mean (S.E.M.) active lever presses during reinstatement test session: 0.1 mg/kg s.c. oxycodone prime, vehicle 35.42. The procedure:
Tezampanel was tested for its ability to reduce prime-induced reinstatement of extinguished, oxycodone-reinforced lever pressing in rats. Tezampanel doses of 0 (vehicle), 3, and 10 mg/kg were solubilized in a sterile water vehicle and administered i.p. 30 min prior to testing.
Adult male Long-Evans hooded rats (Envigo, Indianapolis, IN) weighing 275-300 g upon delivery were used. When not in testing, rats were individually housed in standard plastic rodent cages in a temperature-controlled (22° C.), AAALAC-accredited facility in which they had ad libitum access to water. The rats were allowed ad libitum rat chow for at least one week prior to the commencement of training, after which they were maintained at 320 g by controlled feedings. The rats were maintained on a 12-h/12-h reversed light-dark cycle (0600-1800 lights off) for the duration of the experiment, and they were trained and tested during the dark segment of this cycle.
Oxycodone self-administration training sessions were conducted five days per week (M-F) for 3 h daily. […] For the duration of the infusion, the tone sounded, and the stimulus lights above both levers flashed at 3 Hz.
Self-administration training continued until these criteria had been met: 1) at least 12 self-administration sessions had occurred; 2) at least 15 oxycodone infusions had occurred during each of the last four sessions; 3) at least 125 lifetime oxycodone infusions had been obtained; 4) at least 50 active lever responses on the last three days of self-administration had been emitted; and 5) there were no increasing or decreasing trends in active lever responses during the last three sessions of self-administration, after which extinction training began. Subsequently, twelve 3-h daily (Mon-Sun) extinction sessions were conducted. During extinction sessions, the house light was illuminated, and the levers were extended, but infusions were not administered nor did any other scheduled stimulus change occur (i.e., neither Sonalert® activations nor stimulus light illuminations occurred). Rats were considered eligible for reinstatement testing provided that the mean number of active-lever presses during the last 3 sessions of extinction was lower than the mean number of active-lever presses during the first 3 sessions of extinction.
A six-day incubation period during which rats remained in their home cages followed extinction training. Oxycodone prime reinstatement testing immediately followed this incubation period (i.e., on the seventh day following the 12th day of extinction training). Conditions during prime reinstatement testing were identical to those during extinction except that either 3 or 10 mg/kg Tezampanel or its vehicle was administered 30 min prior to the reinstatement test session. […]

Setting [2] is: 10 mg/kg intraperitoneal, naloxone on test day, vs oxycodone+vehicle.

Structures are written as SMILES. Values joined by “and” are separate entries in the source; they are usually repeats but may differ in a detail not shown here. Equal entries are not always repeated.

As to `O=C(O)[C@@H]1C[C@H]2C[C@@H](CCc3nn[nH]n3)CC[C@H]2CN1` [Tezampanel, (3S,4aR,6R,8aR)-6-[2-(1H-tetrazol-5-yl)ethyl]decahydroisoquinoline-3-carboxylic acid], in data set [1] (setting [2]), the jumps result is “attenuated”, the paw tremors result is “attenuated” and the “total number of withdrawal signs” value is “attenuated”. The “withdrawal-induced body weight loss” value in data set [1] (at the doses tested) was “failed to attenuate”. Moreover, in the data set with C57BL/6J mice (10 mg/kg dose, mice), the “observational comments on behaviour” value was “slowed, unsteady locomotion and low activity rates”. For the same compound, in the data set on C57BL/6J mice (10 mg/kg intraperitoneal, 30 min before, photocell interruptions over 30 min, n=7), the “No. of Interruptions (±S.E.M.)” value stood at 663.7 ± 87.0. In addition, in the data set on C57BL/6J mice (10 mg/kg intraperitoneal, naive mice, p<0.0001), the “locomotor activity compared to vehicle-treated group” value was “significantly reduced”. Also, the “mean (S.E.M.) active lever presses during reinstatement test session” value with Long-Evans hooded rats (3 mg/kg i.p. 30 min prior) was 15.55 (+3.022) and 15.55 (±3.022). For the same compound, in the data set on Long-Evans hooded rats (10 mg/kg i.p. 30 min prior), the “mean (S.E.M.) active lever presses during reinstatement test session” value is 13.00 (+2.537) and 13.00 (±2.537). For the same compound, in the data set on Long-Evans hooded rats (3 and 10 mg/kg i.p.), the “reinstated response levels relative to vehicle-control” value is given as “significantly decreased” and the “reinstatement relative to last extinction session” value was “prevented oxycodone prime injections from eliciting effective reinstatement”.
